The nature of data set [1]: Protein binding in rat serum. It is filed as ADME, cell-free.
A short description of data set [2]: Protein binding in human serum. It is filed as ADME, cell-free. The following applies: read-out: PB (converted).
Data set [3] is described as follows: Protein binding in monkey serum. It is filed as ADME, cell-free, Macaca mulatta. The following applies: rhesus monkey, read-out: PB (converted).

In the case of `COc1cc(-n2cnc3cc(-c4ccc(Cl)cc4)sc3c2=O)ccc1OC[C@H](O)C1CC1`, in data set [1], the PB stood at 99.8%. The fraction unbound is 0.005 in data set [2] and 0.007 in data set [3].

The values above are taken from ChEMBL document CHEMBL4428095, “Evolution of physicochemical properties of melanin concentrating hormone receptor 1 (MCHr1) antagonists” (Bioorg Med Chem Lett, 2016).
